Measured values published in PubChem BioAssay (NCI).
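Results reflect a 48-hour exposure of cells in 96-well plates to compound at five concentrations. At the GI50, growth is halved. TGI denotes the concentration required for complete inhibition of growth.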

Columns and labels:
Experiment in all cases: NCI tumour cell line growth inhibition, 48 h
U251 CNS = tested on: U251 CNS
SNB-19 CNS = tested on: SNB-19 CNS
SF-268 CNS = tested on: SF-268 CNS
SW-620 colon = tested on: SW-620 colon
HCT-116 colon = tested on: HCT-116 colon
SK-MEL-5 melanoma = tested on: SK-MEL-5 melanoma
SK-MEL-2 melanoma = tested on: SK-MEL-2 melanoma
UACC-257 melanoma = tested on: UACC-257 melanoma
HOP-92 NSCLC = tested on: HOP-92 NSCLC
HS 578T breast = tested on: HS 578T breast

SMILES | TGI (U251 CNS) | TGI (SNB-19 CNS) | TGI (SF-268 CNS) | TGI (SW-620 colon) | TGI (HCT-116 colon) | TGI (SK-MEL-5 melanoma) | TGI (SK-MEL-2 melanoma) | TGI (UACC-257 melanoma) | TGI (HOP-92 NSCLC) | TGI (HS 578T breast) | GI50 (UACC-257 melanoma) | GI50 (HOP-92 NSCLC) | GI50 (SF-268 CNS) | GI50 (SW-620 colon) | GI50 (SK-MEL-5 melanoma)
COc1ccc2[nH]c(C(=O)N3CC(CCl)c4c3cc(N)c3ccccc43)cc2c1 (stereo not given) | 0.0409 µM | < 0.0386 µM | < 0.01 µM | 0.132 µM | 1.09 µM | < 0.0112 µM | 0.0285 µM | – | – | – | – | – | – | – | –
CN[C@@H](C)[C@@H](O)c1ccccc1 | > 100 µM | > 100 µM | > 100 µM | > 100 µM | > 100 µM | > 100 µM | > 100 µM | > 100 µM | > 100 µM | > 100 µM | – | – | – | – | –
COC(=O)NC(Cc1ccccc1)NC(C)=O (stereo not given) | > 100 µM | > 100 µM | > 100 µM | > 100 µM | > 100 µM | > 100 µM | > 100 µM | > 100 µM | > 100 µM | > 100 µM | – | – | – | – | –
CCCCCN(CCCCC)CC(C)(C)C(O)c1ccc(OC)c2ccccc12 (stereo not given) | 22.7 µM | 28 µM | 31.5 µM | 27.3 µM | 61.9 µM | 12.8 µM | 32.7 µM | 26.1 µM | 12.7 µM | 39.8 µM | – | – | – | – | –
Cc1cc(N2CCCC2)c([N+](=O)[O-])cc1[N+](=O)[O-] | > 100 µM | > 100 µM | > 100 µM | > 100 µM | > 100 µM | > 100 µM | > 100 µM | > 100 µM | > 100 µM | > 100 µM | – | – | – | – | –
CCN(CC)CCOc1ccc(C(O)(Cc2ccc(OC)cc2)c2ccccc2)cc1 (stereo not given) | 35.5 µM | 67.5 µM | 52 µM | 34.5 µM | 26.8 µM | 26.1 µM | 35.9 µM | 30.3 µM | 46 µM | – | – | – | – | – | –
CC(=O)Oc1cc(OC(C)=O)c2c(C)cc(=O)oc2c1 | > 100 µM | > 100 µM | > 100 µM | > 100 µM | > 100 µM | > 100 µM | > 100 µM | > 100 µM | – | > 100 µM | – | – | – | – | –
N=c1oc2ccccc2cc1-c1nc2ccccc2c(=O)[nH]1 | > 100 µM | > 100 µM | > 100 µM | > 100 µM | > 100 µM | > 100 µM | > 100 µM | > 100 µM | 66.1 µM | 84.3 µM | – | – | – | – | –
O=C(O)CCc1ccc2c(c1)CC1(Cc3ccccc3C1)C2 | > 100 µM | – | – | – | > 100 µM | > 100 µM | > 100 µM | > 100 µM | > 100 µM | > 100 µM | – | – | – | – | –
O=[N+]([O-])c1ccc(N2N=C(c3ccc4ccccc4c3O)CC2c2ccc(Cl)cc2)c([N+](=O)[O-])c1 (stereo not given) | > 100 µM | – | > 100 µM | > 100 µM | > 100 µM | 63.3 µM | > 100 µM | > 100 µM | > 100 µM | > 100 µM | – | – | – | – | –
COc1ccc2c(c1)c1nn(CCN3CCCCC3)c3ccc4c(=O)n(CCN(C)C)c(=O)n2c4c13 | 0.111 µM | 0.532 µM | 0.0766 µM | 0.0751 µM | 0.0213 µM | 0.283 µM | 0.271 µM | 0.885 µM | 0.901 µM | 0.412 µM | – | – | – | – | –
COc1ccc(N=C2C(=Nc3ccc(OC)cc3)N(c3ccc(N(C)C)cc3)C(=S)N2c2ccc(OC)cc2)cc1 | > 100 µM | > 100 µM | > 100 µM | > 100 µM | > 100 µM | > 100 µM | > 100 µM | > 58.1 µM | > 100 µM | > 100 µM | – | – | – | – | –
CCOC(=O)C(NC(=O)CC)(Nc1ccc(F)c(Cl)c1)C(F)(F)F (stereo not given) | > 100 µM | > 100 µM | > 100 µM | > 100 µM | > 100 µM | > 100 µM | > 100 µM | > 100 µM | > 100 µM | > 100 µM | – | – | – | – | –
Cc1ccc(S(=O)(=O)n2ccc(-c3ccc4ccn(S(=O)(=O)c5ccc(C)cc5)c4c3)c2)cc1 | > 100 µM | > 100 µM | > 100 µM | > 100 µM | > 100 µM | > 100 µM | > 100 µM | > 100 µM | – | > 100 µM | – | – | – | – | –
CCC(=O)/C(=C\I)c1ccccc1 | 4.83 µM | 29 µM | 40.3 µM | – | 3.3 µM | – | 4.41 µM | 16.7 µM | 4.27 µM | > 100 µM | – | – | – | – | –
COC([C@@H](OC(=O)c1ccccc1)[C@H](OC(=O)c1ccccc1)C(O)COC(=O)c1ccccc1)n1cc(C)c(=O)[nH]c1=O (stereo not given in full) | 58.3 µM | > 100 µM | > 100 µM | > 100 µM | 87.8 µM | 24 µM | 67.1 µM | > 100 µM | – | > 100 µM | – | – | – | – | –

SMILES | TGI (U251 CNS) | TGI (SNB-19 CNS) | TGI (SF-268 CNS) | TGI (SW-620 colon) | TGI (HCT-116 colon) | TGI (SK-MEL-5 melanoma) | TGI (SK-MEL-2 melanoma) | TGI (UACC-257 melanoma) | TGI (HOP-92 NSCLC) | TGI (HS 578T breast) | GI50 (UACC-257 melanoma) | GI50 (HOP-92 NSCLC) | GI50 (SF-268 CNS) | GI50 (SW-620 colon) | GI50 (SK-MEL-5 melanoma)
O=C(N/N=C(/COc1ccccc1Cl)N=Cc1ccncc1)c1ccncc1 | > 100 µM | > 100 µM | > 100 µM | > 100 µM | > 100 µM | – | > 100 µM | > 100 µM | > 100 µM | > 100 µM | – | – | – | – | –
Cc1c2ccccc2c(C)n2c1nc1ccccc12 | – | 68.3 µM | 30 µM | > 100 µM | > 100 µM | 16 µM | – | 76.4 µM | 45.2 µM | 54.5 µM | – | – | – | – | –
Cn1ccnc1CCc1ccc(Cl)c(Cl)c1 | > 100 µM | – | > 100 µM | > 100 µM | > 100 µM | > 100 µM | > 100 µM | > 100 µM | > 100 µM | – | – | – | – | – | –
O=C(C(Cl)=C(N1CCCCC1)N1CCCCC1)C(Cl)Cl | – | > 100 µM | > 100 µM | > 100 µM | > 100 µM | > 100 µM | – | > 100 µM | > 100 µM | > 100 µM | – | – | – | – | –
CC(=O)OC(C)(C)CCC(=O)[C@](C)(O)[C@H]1[C@H](O)C[C@@]2(C)[C@@H]3CC=C4C(C)=C(OC5OC(CO)C(O)C(O)C5O)C(=O)C[C@@H]4[C@]3(C)C(=O)C[C@]12C (stereo not given in full) | > 100 µM | > 100 µM | > 100 µM | > 100 µM | > 100 µM | > 100 µM | > 100 µM | > 100 µM | > 100 µM | – | – | – | – | – | –
CN(C)c1ccc(/C=C/C(=O)O)cc1 | – | > 100 µM | > 100 µM | > 100 µM | > 100 µM | > 100 µM | > 100 µM | > 100 µM | – | – | – | – | – | – | –
Cc1c(O)c(OC2OC(CO)C(O)C(O)C2O)cc2c1C=C[C@@H]1[C@@]2(C)C(=O)C[C@]2(C)[C@@H]([C@@](C)(O)C(=O)CCC(C)(C)O)[C@H](O)C[C@@]12C (stereo not given in full) | 43.2 µM | 54 µM | 83.1 µM | 79.9 µM | 37.8 µM | 43.6 µM | 68.7 µM | 47.2 µM | 40.8 µM | – | – | – | – | – | –
COP(=O)(O)C(N)Cc1c[nH]c2ccccc12 (stereo not given) | > 100 µM | > 100 µM | – | > 100 µM | > 100 µM | > 100 µM | > 100 µM | > 100 µM | > 100 µM | > 100 µM | – | – | – | – | –
Clc1ccc(C2CC(c3cccc(Nc4ccncc4)c3)=NN2c2cc(Cl)cc(Cl)c2)cc1 (stereo not given) | – | – | 3.59 µM | 3.86 µM | – | 3.38 µM | – | 4.42 µM | 2.99 µM | – | 2.12 µM | 1.51 µM | 1.78 µM | 1.84 µM | 1.83 µM
C[n+]1c2ccccc2c(/C=N\NS(=O)(=O)c2ccc(Cl)cc2)c2ccccc21 | > 100 µM | > 100 µM | > 100 µM | > 100 µM | > 100 µM | > 100 µM | > 100 µM | > 100 µM | > 100 µM | – | – | – | – | – | –
CCOC(=O)CCC(NC(=O)Cc1ccc(Oc2nc3ccccc3nc2-c2ccccc2)cc1)C(=O)OCC (stereo not given) | > 100 µM | > 100 µM | > 100 µM | > 100 µM | > 100 µM | > 100 µM | > 100 µM | > 100 µM | – | > 100 µM | – | – | – | – | –
COc1cccc(-c2nccc3c(OCc4ccccc4)c(OC)c(OC)cc23)c1 | > 100 µM | > 100 µM | > 100 µM | > 100 µM | > 100 µM | > 100 µM | > 100 µM | > 100 µM | > 100 µM | – | – | – | – | – | –
COc1ccc(CNc2nc3cc(C(F)(F)F)ccc3nc2-c2ccccc2)cc1OC | – | > 100 µM | > 100 µM | > 100 µM | > 100 µM | 42.4 µM | > 100 µM | > 100 µM | – | > 100 µM | – | – | – | – | –
O=C1C2=C(SCCS2)C(=O)c2c(Sc3ccc(Cl)cc3)c(Sc3ccc(Cl)cc3)c(Sc3ccc(Cl)cc3)c(Sc3ccc(Cl)cc3)c21 | > 100 µM | 88.6 µM | > 100 µM | > 100 µM | > 100 µM | > 100 µM | > 100 µM | > 100 µM | – | > 100 µM | – | – | – | – | –
O=[N+]([O-])c1ccc([N+]2=NC(c3ccccc3)=NN(c3ccccc3)C2)cc1 | > 100 µM | > 100 µM | > 100 µM | > 100 µM | > 100 µM | > 100 µM | 92.4 µM | > 100 µM | > 100 µM | – | – | – | – | – | –
O=C(CSc1nnc(-c2ccc(N=Cc3ccc(Cl)cc3)cc2)o1)Nc1ccc([N+](=O)[O-])cc1 | 37.1 µM | 33.7 µM | 46.1 µM | 36.3 µM | 9.43 µM | 67.9 µM | 60.8 µM | 44.3 µM | – | – | – | – | – | – | –
